target: T1, human PKCθ full length enzyme (Homo sapiens, UniProt Q04759); assay: PKCθ IMAP assay (fluorescence polarization); assay type: biochemical; conditions: human PKCθ full length enzyme, IMAP; average value; read-out: IC50 PKCθ IMAP
T1 construct: human PKCθ full length enzyme (Panvera Cat# P2996); purchased Panvera P2996
Procedure: The reaction buffer was prepared by diluting the 5× stock reaction buffer and adding DTT to obtain a concentration of 3.0 mM. […] The final concentration of compound was 2× and 10% DMSO. DMSO was added to the rest of the master mix to increase the concentration to 10%. 10 μl of the master mix containing 10% DMSO was added to the rest of the wells on the plate except the 2nd column. 20 μl was transferred from the first column to the 2nd column. The compounds were serially diluted in 2:1 ratio starting from the 2nd column. A 2× ([…]) PKCθ solution was made in the reaction buffer. 10 μl of the PKCθ solution was added to every well to achieve these final concentrations: PKCθ—1 nM; ATP—6 μM; peptide—100 nM; DMSO—5%. Samples were incubated for 25 minutes at room temperature. The binding reagent was prepared by diluting the beads in 1× binding buffer to 800:1. 50 μl of the binding reagent was added to every well and incubated for 20 minutes. FP was measured using Envision2100 (PerkinElmer Life Sciences). Wells with no ATPs and wells with no enzymes were used as controls.

T1 sequence (Q04759 whole entry): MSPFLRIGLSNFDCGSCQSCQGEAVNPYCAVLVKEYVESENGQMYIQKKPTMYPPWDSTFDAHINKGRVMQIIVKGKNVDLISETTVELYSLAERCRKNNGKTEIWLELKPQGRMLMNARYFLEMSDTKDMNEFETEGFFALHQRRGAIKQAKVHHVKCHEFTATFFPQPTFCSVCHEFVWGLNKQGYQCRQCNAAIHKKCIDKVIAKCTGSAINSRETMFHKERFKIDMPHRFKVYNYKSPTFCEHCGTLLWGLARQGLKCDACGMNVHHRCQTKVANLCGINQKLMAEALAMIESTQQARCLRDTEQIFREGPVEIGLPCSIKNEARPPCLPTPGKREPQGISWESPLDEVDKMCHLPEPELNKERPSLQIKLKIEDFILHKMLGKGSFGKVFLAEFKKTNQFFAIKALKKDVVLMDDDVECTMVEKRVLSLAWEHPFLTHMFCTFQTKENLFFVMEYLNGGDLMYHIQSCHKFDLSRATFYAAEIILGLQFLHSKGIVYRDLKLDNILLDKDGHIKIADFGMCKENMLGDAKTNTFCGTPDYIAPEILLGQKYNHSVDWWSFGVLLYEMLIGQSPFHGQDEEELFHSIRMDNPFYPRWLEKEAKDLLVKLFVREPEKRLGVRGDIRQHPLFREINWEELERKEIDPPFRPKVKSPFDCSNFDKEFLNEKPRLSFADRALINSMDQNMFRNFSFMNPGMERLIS

IC50	Compound
1130 nM	COc1ccc(-c2cncc(C#N)c2NC[C@H]2CCC[C@@H](CN)C2)cc1OC (relative stereo) [Compound 443, 4-({[cis-3-(aminomethyl)cyclohexyl]methyl}amino)-5-(3,4-dimethoxyphenyl)nicotinonitrile]
9320 nM	COc1ccc(-c2cncc(C#N)c2Nc2ccc3c(c2)CCC3)cc1OC [Compound 107, 4-(2,3-dihydro-1H-inden-5-ylamino)-5-(3,4-dimethoxyphenyl)nicotinonitrile]
65 nM	COc1ccc(-c2cncc(C#N)c2Nc2ccc3[nH]c(C)cc3c2)cc1OC [Compound 110, 5-(3,4-dimethoxyphenyl)-4-[(2-methyl-1H-indol-5-yl)amino]nicotinonitrile]
580 nM	COc1ccc(-c2cncc(C#N)c2Nc2ccc3c(c2)OCO3)cc1OC [Compound 111, 4-(1,3-benzodioxol-5-ylamino)-5-(3,4-dimethoxyphenyl)nicotinonitrile]
1130 nM	COc1ccc(-c2cncc(C#N)c2Nc2ccc3ccccc3c2)cc1OC [Compound 112, 5-(3,4-dimethoxyphenyl)-4-(2-naphthylamino)nicotinonitrile]
50 nM	N#Cc1cncc(-c2cccc(Br)c2)c1Nc1ccc2[nH]ccc2c1 [Compound 113, 5-(3-bromophenyl)-4-(1H-indol-5-ylamino)nicotinonitrile]
2 nM	N#Cc1cncc(-c2cccc(Br)c2)c1Nc1cccc2[nH]ccc12 [Compound 114, 5-(3-bromophenyl)-4-(1H-indol-4-ylamino)nicotinonitrile]
310 nM	N#Cc1cncc(-c2ccccc2Br)c1Nc1ccc2[nH]ccc2c1 [Compound 115, 5-(2-bromophenyl)-4-(1H-indol-5-ylamino)nicotinonitrile]
70 nM	N#Cc1cncc(-c2ccc(Br)cc2)c1Nc1ccc2[nH]ccc2c1 [Compound 116, 5-(4-bromophenyl)-4-(1H-indol-5-ylamino)nicotinonitrile]
300 nM	N#Cc1cncc(-c2cccc(-c3ccc(N)cc3)c2)c1Nc1ccc2[nH]ccc2c1 [Compound 119, 5-(4′-aminobiphenyl-3-yl)-4-(1H-indol-5-ylamino)nicotinonitrile]
180 nM	N#Cc1cncc(-c2cccc(-c3ccc(C(=O)NC4CCCC4)cc3)c2)c1Nc1ccc2[nH]ccc2c1 [Compound 123, 3′-[5-cyano-4-(1H-indol-5-ylamino)pyridin-3-yl]-N-cyclopentylbiphenyl-4-carboxamide]
1100 nM	N#Cc1cncc(-c2cccc(-c3cc[nH]c3)c2)c1Nc1ccc2[nH]ccc2c1 [Compound 124, 4-(1H-indol-5-ylamino)-5-[3-(1H-pyrrol-3-yl)phenyl]nicotinonitrile]
130 nM	Cc1ccc(-c2cccc(-c3cncc(C#N)c3Nc3ccc4[nH]ccc4c3)c2)cc1 [Compound 128, 4-(1H-indol-5-ylamino)-5-(4′-methylbiphenyl-3-yl)nicotinonitrile]
110 nM	N#Cc1cccc(-c2cccc(-c3cncc(C#N)c3Nc3ccc4[nH]ccc4c3)c2)c1 [Compound 132, 5-(3′-cyanobiphenyl-3-yl)-4-(1H-indol-5-ylamino)nicotinonitrile]
130 nM	N#Cc1cncc(-c2cccc(-c3cccs3)c2)c1Nc1ccc2[nH]ccc2c1 [Compound 136, 4-(1H-indol-5-ylamino)-5-[3-(2-thienyl)phenyl]nicotinonitrile]
250 nM	Cc1csc(-c2cccc(-c3cncc(C#N)c3Nc3ccc4[nH]ccc4c3)c2)c1 [Compound 139, 4-(1H-indol-5-ylamino)-5-[3-(4-methyl-2-thienyl)phenyl]nicotinonitrile]
110 nM	CC(=O)c1ccc(-c2cccc(-c3cncc(C#N)c3Nc3ccc4[nH]ccc4c3)c2)s1 [Compound 140, 5-[3-(5-acetyl-2-thienyl)phenyl]-4-(1H-indol-5-ylamino)nicotinonitrile]
120 nM	N#Cc1cncc(-c2cccc(-c3ccoc3)c2)c1Nc1ccc2[nH]ccc2c1 [Compound 142, 5-[3-(3-furyl)phenyl]-4-(1H-indol-5-ylamino)nicotinonitrile]
20 nM	N#Cc1cncc(-c2cccc(-c3cccs3)c2)c1Nc1cccc2[nH]ccc12 [Compound 147, 4-(1H-indol-4-ylamino)-5-[3-(2-thienyl)phenyl]nicotinonitrile]
40 nM	N#Cc1cncc(-c2cccc(-c3ccc(C(=O)NC4CCCC4)cc3)c2)c1Nc1cccc2[nH]ccc12 [Compound 148, 3′-[5-cyano-4-(1H-indol-4-ylamino)pyridin-3-yl]-N-cyclopentylbiphenyl-4-carboxamide]
70 nM	N#Cc1cncc(-c2cccc(-c3ccc(C(=O)N4CCCC4)cc3)c2)c1Nc1cccc2[nH]ccc12 [Compound 149, 4-(1H-indol-4-ylamino)-5-[4′-(pyrrolidin-1-ylcarbonyl)biphenyl-3-yl]nicotinonitrile]
120 nM	N#Cc1cncc(-c2cccc(-c3ccc(C=O)s3)c2)c1Nc1ccc2[nH]ccc2c1 [Compound 150, 5-[3-(5-formyl-2-thienyl)phenyl]-4-(1H-indol-5-ylamino)nicotinonitrile]
30 nM	COCCOc1cccc(-c2cncc(C#N)c2Nc2cccc3[nH]ccc23)c1 [Compound 164, 4-(1H-indol-4-ylamino)-5-[3-(2-methoxyethoxy)phenyl]nicotinonitrile]
20 nM	CN1CCN(CCOc2cccc(-c3cncc(C#N)c3Nc3cccc4[nH]ccc34)c2)CC1 [Compound 168, 4-(1H-indol-4-ylamino)-5-{3-[2-(4-methylpiperazin-1-yl)ethoxy]phenyl}nicotinonitrile]
50 nM	N#Cc1cncc(-c2cccc(OCCN3CCCCC3)c2)c1Nc1cccc2[nH]ccc12 [Compound 171, 4-(1H-indol-4-ylamino)-5-[3-(2-piperidin-1-ylethoxy)phenyl]nicotinonitrile]

Compound	IC50
4-(1H-indol-4-ylamino)-5-(4-methoxy-3-{2-[(3-pyrrolidin-1-ylpropyl)amino]ethoxy}phenyl)nicotinonitrile [Compound 340]	8 nM
4-(1H-indol-4-ylamino)-5-(4-{2-[(3-phenylpropyl)amino]ethoxy}phenyl)nicotinonitrile [Compound 347]	4 nM
4-(1H-indol-4-ylamino)-5-[4-methoxy-3-(2-{[2-(1-methylpyrrolidin-2-yl)ethyl]amino}ethoxy)phenyl]nicotinonitrile [Compound 341]	3 nM
4-[(4-methyl-1H-indol-5-yl)amino]-5-(5-{[(3-phenylpropyl)amino]methyl}-2-furyl)nicotinonitrile [Compound 409]	27 nM
4-[(4-methyl-1H-indol-5-yl)amino]-5-[5-(pyrrolidin-1-ylmethyl)-2-furyl]nicotinonitrile [Compound 410]	35 nM
4-[(4-methyl-1H-indol-5-yl)amino]-5-[5-(thiomorpholin-4-ylmethyl)-2-furyl]nicotinonitrile [Compound 411]	8 nM
5-(1-benzofuran-3-yl)-4-(1H-indol-4-ylamino)nicotinonitrile [Compound 352]	20 nM
5-(2,4-dimethoxyphenyl)-4-(1H-indol-4-ylamino)nicotinonitrile [Compound 337]	100 nM
5-{5-[(cyclohexylamino)methyl]-1-benzofuran-2-yl}-4-[(4-methyl-1H-indol-5-yl)amino]nicotinonitrile [Compound 387]	1 nM

From patent publication US7781591B2, “Substituted 3-cyanopyridines as protein kinase inhibitors” (Wyeth LLC, priority 2006, dated 2010)
